Measured values published in PMC7457178 (Biomolecules & Therapeutics, 2020).

Columns and labels:
Cytotoxicity, VERO = format: cell-based; settings: African green monkey, VERO cells
HDAC5 phosphorylation = experiment: Angiotensin II-induced HDAC5 phosphorylation in neonatal cardiomyocytes; settings: 0.1 µM angiotensin II
Cytotoxicity, L929 = format: cell-based; settings: mouse, L929 cells
in vivo = settings: Sprague-Dawley (S.D.), rat, iv, 10 mg/kg, Kp (ratio of tissue to plasma concentration), 10 mg/kg i.v.
Cytotoxicity, HFL-1 = format: cell-based; settings: human, HFL-1 cells
[1] = Pharmacokinetic study in rats; format: in vivo; settings: rat
Cytotoxicity, NIH3T3 = format: cell-based; settings: mouse, NIH3T3 cells
C57BL/6 mice = experiment: Transverse aortic constriction; settings: 30 mg/kg daily oral, 14 days
[2] = test system: neonatal rat cardiomyocytes; experiment: Angiotensin II-induced cellular hypertrophy in neonatal cardiomyocytes; settings: 0.1 µM angiotensin II, 4 days
hERG channel = hERG channel (Homo sapiens, UniProt Q12809); experiment: Patch clamp for the hERG channel; format: cell-based
Chain of hERG channel (Q12809 whole entry): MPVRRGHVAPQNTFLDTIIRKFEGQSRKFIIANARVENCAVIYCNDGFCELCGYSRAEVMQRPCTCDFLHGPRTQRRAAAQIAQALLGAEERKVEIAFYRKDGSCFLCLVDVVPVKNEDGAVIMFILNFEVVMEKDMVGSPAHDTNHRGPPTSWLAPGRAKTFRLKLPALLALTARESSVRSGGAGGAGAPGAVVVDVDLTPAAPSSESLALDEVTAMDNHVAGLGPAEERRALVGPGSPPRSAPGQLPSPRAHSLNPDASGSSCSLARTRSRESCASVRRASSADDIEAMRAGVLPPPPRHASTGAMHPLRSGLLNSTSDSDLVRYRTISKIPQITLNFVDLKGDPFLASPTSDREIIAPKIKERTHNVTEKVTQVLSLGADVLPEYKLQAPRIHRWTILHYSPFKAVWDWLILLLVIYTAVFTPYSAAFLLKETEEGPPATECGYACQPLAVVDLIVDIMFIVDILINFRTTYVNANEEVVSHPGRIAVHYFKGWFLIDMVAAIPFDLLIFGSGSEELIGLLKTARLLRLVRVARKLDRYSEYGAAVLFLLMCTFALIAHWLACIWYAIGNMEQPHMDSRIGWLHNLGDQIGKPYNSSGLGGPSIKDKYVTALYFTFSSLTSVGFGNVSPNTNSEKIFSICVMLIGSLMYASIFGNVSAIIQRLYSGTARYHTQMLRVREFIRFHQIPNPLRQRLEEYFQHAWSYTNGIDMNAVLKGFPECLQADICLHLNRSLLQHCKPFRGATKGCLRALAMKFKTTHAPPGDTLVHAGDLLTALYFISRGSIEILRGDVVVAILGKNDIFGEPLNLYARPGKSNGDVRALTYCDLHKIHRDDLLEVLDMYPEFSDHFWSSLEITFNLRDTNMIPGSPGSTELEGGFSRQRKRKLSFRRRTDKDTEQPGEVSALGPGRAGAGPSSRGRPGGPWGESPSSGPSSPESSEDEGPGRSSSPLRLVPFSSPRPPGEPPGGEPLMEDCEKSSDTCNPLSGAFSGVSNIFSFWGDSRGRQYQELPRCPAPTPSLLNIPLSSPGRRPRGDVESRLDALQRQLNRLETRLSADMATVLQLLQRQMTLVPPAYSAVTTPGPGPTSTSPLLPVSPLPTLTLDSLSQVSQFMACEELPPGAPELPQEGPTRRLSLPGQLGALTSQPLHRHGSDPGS

GRK2 = molecular target: T1, GRK2 (Homo sapiens, UniProt P25098); experiment: Inhibitory activity against GRK2; format: biochemical; settings: read-out: Inhibition of GRK2
T1 sequence (P25098 1-689): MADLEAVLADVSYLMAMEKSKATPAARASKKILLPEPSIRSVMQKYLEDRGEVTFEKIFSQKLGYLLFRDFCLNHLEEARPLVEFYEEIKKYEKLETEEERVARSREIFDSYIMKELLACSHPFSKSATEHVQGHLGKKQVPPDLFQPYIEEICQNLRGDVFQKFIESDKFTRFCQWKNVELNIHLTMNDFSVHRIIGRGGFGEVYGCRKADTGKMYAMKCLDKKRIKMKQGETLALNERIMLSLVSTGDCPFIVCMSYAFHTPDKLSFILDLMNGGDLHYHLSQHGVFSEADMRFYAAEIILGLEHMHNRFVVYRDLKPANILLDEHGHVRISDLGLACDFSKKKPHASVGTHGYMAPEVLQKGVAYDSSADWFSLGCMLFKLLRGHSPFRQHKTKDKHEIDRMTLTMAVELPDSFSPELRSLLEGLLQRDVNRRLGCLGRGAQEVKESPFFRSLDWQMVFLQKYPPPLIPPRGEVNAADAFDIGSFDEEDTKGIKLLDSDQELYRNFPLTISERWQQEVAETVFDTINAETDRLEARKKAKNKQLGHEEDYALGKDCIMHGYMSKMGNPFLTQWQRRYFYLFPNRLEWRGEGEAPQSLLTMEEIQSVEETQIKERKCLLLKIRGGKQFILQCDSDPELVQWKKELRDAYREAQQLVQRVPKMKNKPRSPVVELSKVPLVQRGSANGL

S.D. rats = experiment: Post-MI chronic heart failure model; format: in vivo, rat; settings: for Fractional shortening / Left ventricular ejection fraction: 12 weeks after coronary artery ligation
[3] = Sprague-Dawley (S.D.), plasma, iv, 5 mg/kg
[4] = Sprague-Dawley (S.D.), plasma, po, 300 mg/kg
[5] = 30 mg/kg/day p.o., 12 weeks after MI

In the case of `NCCCNCCCCNCCCNc1cc2nc(-c3ccccc3Cl)[nH]c(=O)c2cc1F` [KR-39038, 7-((3-((4-((3-aminopropyl)amino)butyl)amino)propyl)amino)-2-(2-chlorophenyl)-6-fluoroquinazolin-4(3H)-one], the EC50 (Cytotoxicity, VERO) is reported as > 100 µM, the “Effect on angiotensin II-induced phosphorylation of HDAC5” value (HDAC5 phosphorylation) is reported as “effectively downregulated” and the EC50 (Cytotoxicity, L929) is reported as 89.9 µM. The Kp at 4 h (in vivo; brain) was 11.3, the Kp at 4 h (in vivo; heart) was 16.9 and the Kp at 4 h (in vivo; kidney) was 26.3. It also gave a Kp at 4 h (in vivo; liver) of 10.4, a Kp at 4 h (in vivo; lung) of 2.7 and a Kp at 4 h (in vivo; plasma) of 1. The EC50 (Cytotoxicity, HFL-1) was > 100 µM, the AUC(0-inf) [1, 3] was 3400 ± 1000 ng·h/mL and the Vd [1, 3] was 1.2 ± 0.2 L/kg. For the same compound, the clearance [1, 3] was 26.7 mL/min/kg, the half-life [1, 3] was 42 ± 2.4 min and the AUC(0-inf) ([1]; Sprague-Dawley (S.D.), plasma, iv, 10 mg/kg) was 3400 ± 1000 ng·h/mL. It also gave an AUC(0-inf) [1, 4] of 8900 ± 5000 ng·h/mL, a Cmax [1, 4] of 5200 ± 2800 ng/mL and a Tmax [1, 4] of 42 ± 12 min. The half-life [1, 4] was 138 ± 174 min, the “F (oral bioavailability)” value ([1]; 300 mg/kg p.o., 300 mg/kg) was 4.3 ± 2.4% and the EC50 (Cytotoxicity, NIH3T3) was 61.1 µM. The “Reduction in the left ventricular weight” value (C57BL/6 mice) was 43%, the “Effect on angiotensin II-induced cellular hypertrophy (cell surface area)” value [2] was “concentration-dependently inhibited” and the IC50 (hERG channel) was > 50 µM. For the same compound, the inhibition at 10 µM (GRK2) was 5.9%, the Survival rate (S.D. rats; 10 mg/kg/day p.o., 12 weeks after MI) was 80% and the Fractional shortening (S.D. rats; 10 mg/kg/day p.o.) was 23.4 ± 1.6%. The “Left ventricular ejection fraction” value (S.D. rats; 10 mg/kg/day p.o.) was 44.3 ± 2.6%, the Interstitial fibrosis (S.D. rats; [5]) was 16.3 ± 1.6% and the Myocyte cross-sectional area (S.D. rats; [5]) was 420.1 ± 21.2 µm^2. For the same compound, the Survival rate (S.D. rats; [5]) was 73%, the Fractional shortening (S.D. rats; 30 mg/kg/day p.o.) was 22.6 ± 1.3% and the “Left ventricular ejection fraction” value (S.D. rats; 30 mg/kg/day p.o.) was 43.4 ± 2.3%.
With `CC(C)c1ccc2oc3nc(N)c(C(=O)O)cc3c(=O)c2c1` [amlexanox, reference compound] the “Effect on angiotensin II-induced phosphorylation of HDAC5” value (HDAC5 phosphorylation) was “effectively downregulated” and the “Effect on angiotensin II-induced cellular hypertrophy (cell surface area)” value [2] was “concentration-dependently inhibited”.
`C[C@H](CS)C(=O)N1CCC[C@H]1C(=O)O` [captopril, reference compound] gave a Survival rate (S.D. rats; [5]) of 67%.
